From ChEMBL document CHEMBL4270561, “Biological activity of doubly modified salinomycin analogs - Evaluation in vitro and ex vivo” (Eur J Med Chem, 2018)

Key:
MCF7 = assay: Antiproliferative activity against human MCF7 cells after 72 hrs by SRB assay; assay type: functional, cell-based; conditions: MCF7, 72 h
[1] = Selectivity index, ratio of IC50 for human MCF10A cells to IC50 for human JIMT1 cells; assay type: toxicity; conditions: MCF10A cells versus JIMT1 cells, read-out: Ratio IC50
[2] = Antiproliferative activity against human ALL5 cells after 120 hrs by MTT assay; assay type: functional, cell-based; conditions: ALL5, 120 h
[3] = Selectivity index, ratio of IC50 for human MCF10A cells to IC50 for human MCF7 cells; assay type: toxicity; conditions: MCF10A cells versus MCF7 cells, read-out: Ratio IC50
[4] = Selectivity index, ratio of IC50 for human MCF10A cells to IC50 for human LoVo cells; assay type: toxicity; conditions: MCF10A cells versus LoVo cells, read-out: Ratio IC50
SK-BR-3 = assay: Antiproliferative activity against human SK-BR-3 cells after 72 hrs by SRB assay; assay type: functional, cell-based; conditions: SK-BR-3, 72 h
[5] = Selectivity index, ratio of IC50 for human MCF10A cells to IC50 for human SK-BR-3 cells; assay type: toxicity; conditions: MCF10A cells versus SK-BR-3 cells, read-out: Ratio IC50
[6] = Selectivity index, ratio of IC50 for human MCF10A cells to IC50 for human LoVo/DX cells; assay type: toxicity; conditions: MCF10A cells versus LoVo/DX cells, read-out: Ratio IC50
JIMT-1 = assay: Antiproliferative activity against human JIMT1 cells after 72 hrs by SRB assay; assay type: functional, cell-based; conditions: JIMT-1, 72 h
[7] = Resistance index, ratio of IC50 for human LoVo/DX cells to IC50 for human LoVo cells; assay type: functional
MCF-10A [8] = assay: Antiproliferative activity against human MCF10A cells after 72 hrs by SRB assay; assay type: cell-based
[9] = Antiproliferative activity against human LoVo/DX cells after 72 hrs by SRB assay; assay type: functional, cell-based
LoVo = assay: Antiproliferative activity against human LoVo cells after 72 hrs by SRB assay; assay type: functional, cell-based
[10] = Selectivity index, ratio of IC50 for human MCF10A cells to IC50 for human ALL5 cells; assay type: toxicity; conditions: MCF10A cells versus ALL5 cells, read-out: Ratio IC50
[11] = Cell cycle arrest in human ALL5 cells assessed as accumulation at G2/M-phase at 5 times antiproliferative IC50 after 48 hrs by propidium iodide staining based flow cytometry (reference value: 13.2%); assay type: functional
[12] = Cell cycle arrest in human ALL5 cells assessed as accumulation at G2/M-phase at 5 times antiproliferative IC50 after 24 hrs by propidium iodide staining based flow cytometry (reference value: 7.98%); assay type: functional
[13] = Cell cycle arrest in human ALL5 cells assessed as accumulation at G2/M-phase at 5 times antiproliferative IC50 after 96 hrs by propidium iodide staining based flow cytometry (reference value: 11.1%); assay type: functional
[14] = Cell cycle arrest in human ALL5 cells assessed as accumulation at S-phase at 5 times antiproliferative IC50 after 96 hrs by propidium iodide staining based flow cytometry (reference value: 7.52%); assay type: functional
[15] = Cell cycle arrest in human ALL5 cells assessed as accumulation at sub-G1 phase at 5 times antiproliferative IC50 after 96 hrs by propidium iodide staining based flow cytometry (reference value: 12%); assay type: functional
[16] = Cell cycle arrest in human ALL5 cells assessed as accumulation at S-phase at 5 times antiproliferative IC50 after 24 hrs by propidium iodide staining based flow cytometry (reference value: 6.76%); assay type: functional
[17] = Cell cycle arrest in human ALL5 cells assessed as accumulation at sub-G1 phase at 5 times antiproliferative IC50 after 48 hrs by propidium iodide staining based flow cytometry (reference value: 7.8%); assay type: functional
[18] = Cell cycle arrest in human ALL5 cells assessed as accumulation at G0/G1 phase at 5 times antiproliferative IC50 after 96 hrs by propidium iodide staining based flow cytometry (reference value: 69.8%); assay type: functional
[19] = Cell cycle arrest in human ALL5 cells assessed as accumulation at sub-G1 phase at 5 times antiproliferative IC50 after 24 hrs by propidium iodide staining based flow cytometry (reference value: 6.07%); assay type: functional
[20] = Cell cycle arrest in human ALL5 cells assessed as accumulation at S-phase at 5 times antiproliferative IC50 after 48 hrs by propidium iodide staining based flow cytometry (reference value: 9.82%); assay type: functional
[21] = Cell cycle arrest in human ALL5 cells assessed as accumulation at G0/G1 phase at 5 times antiproliferative IC50 after 24 hrs by propidium iodide staining based flow cytometry (reference value: 79.7%); assay type: functional
[22] = Cell cycle arrest in human ALL5 cells assessed as accumulation at G0/G1 phase at 5 times antiproliferative IC50 after 48 hrs by propidium iodide staining based flow cytometry (reference value: 69.6%); assay type: functional
MCF-10A [23] = assay: Antiproliferative activity against human MCF10A cells at 100 ug/ml after 72 hrs by SRB assay relative to control; assay type: cell-based

| Structure (SMILES) | IC50 (MCF7) | IC50 (SK-BR-3) | IC50 (LoVo) | selectivity ratio [1] | IC50 [2] | selectivity ratio [3] | selectivity ratio [4] | selectivity ratio [5] | selectivity ratio [6] | IC50 (JIMT-1) | Ratio IC50 [7] | IC50 (MCF-10A [8]) | IC50 [9] | selectivity ratio [10] | Activity [11] | Activity [12] | Activity [13] | Activity [14] | Activity [15] | Activity [16] | other results |
| --- | --- | --- | --- | --- | --- | --- | --- | --- | --- | --- | --- | --- | --- | --- | --- | --- | --- | --- | --- | --- | --- |
| C#CCNC(=O)[C@H](CC)[C@H]1CC[C@H](C)[C@H]([C@@H](C)[C@H](O)[C@H](C)C(=O)[C@H](CC)[C@H]2O[C@]3(C=C[C@@H](OC(=O)OCC)[C@]4(CC[C@@](C)([C@H]5CC[C@](O)(CC)[C@H](C)O5)O4)O3)[C@H](C)C[C@@H]2C)O1 | 4.9 µM | 16 µM | 4.7 µM | – | 17 µM | – | – | – | – | 7.9 µM | 0.81 | – | 3.8 µM | – | – | – | – | – | – | – | Activity (MCF-10A [23]): <= 50% |
| CC[C@@H](C(=O)[C@@H](C)[C@@H](O)[C@H](C)[C@@H]1O[C@@H]([C@@H](CC)C(=O)NCCc2ccc(F)cc2)CC[C@@H]1C)[C@H]1O[C@]2(C=C[C@@H](O)[C@]3(CC[C@@](C)([C@H]4CC[C@](O)(CC)[C@H](C)O4)O3)O2)[C@H](C)C[C@@H]1C | 4.1 µM | 5.6 µM | 3.8 µM | 7.8 | 1.7 µM | 9.8 | 11 | 7.1 | 16 | 5.1 µM | 0.66 | 40 µM | 2.5 µM | 24 | – | – | – | – | – | – | – |
| C#CCNC(=O)[C@H](CC)[C@H]1CC[C@H](C)[C@H]([C@@H](C)[C@H](O)[C@H](C)C(=O)[C@H](CC)[C@H]2O[C@]3(C=C[C@@H](OC(C)=O)[C@]4(CC[C@@](C)([C@H]5CC[C@](O)(CC)[C@H](C)O5)O4)O3)[C@H](C)C[C@@H]2C)O1 | 5.8 µM | 12 µM | 4.4 µM | 5.4 | 4 µM | 16 | 21 | 7.7 | 25 | 17 µM | 0.84 | 92 µM | 3.7 µM | 23 | 5.11% | 5.01% | 1.27% | 2.15% | 76.3% | 3.48% | Activity [17]: 34.3%; Activity [18]: 20.6%; Activity [19]: 14.5%; Activity [20]: 1.75%; Activity [21]: 77.1%; Activity [22]: 58.9% |
| CCNC(=O)O[C@@H]1C=C[C@]2(O[C@H]([C@@H](CC)C(=O)[C@@H](C)[C@@H](O)[C@H](C)[C@@H]3O[C@@H]([C@@H](CC)C(=O)OCC(F)(F)F)CC[C@@H]3C)[C@@H](C)C[C@H]2C)O[C@@]12CC[C@@](C)([C@H]1CC[C@](O)(CC)[C@H](C)O1)O2 | 6.1 µM | 64 µM | 5.3 µM | 5.5 | 1.5 µM | 9.8 | 11 | 0.94 | 8 | 11 µM | 1.4 | 60 µM | 7.5 µM | 40 | 11.8% | 8.15% | 11% | 5.42% | 27.8% | 4.98% | Activity [17]: 19.8%; Activity [18]: 56%; Activity [19]: 11%; Activity [20]: 4.5%; Activity [21]: 76%; Activity [22]: 64.1% |

Continued by falling IC50 (MCF7), values first:

| IC50 (MCF7) | IC50 (SK-BR-3) | IC50 (LoVo) | Structure (SMILES) | selectivity ratio [1] | IC50 [2] | selectivity ratio [3] | selectivity ratio [4] | selectivity ratio [5] | selectivity ratio [6] | IC50 (JIMT-1) | Ratio IC50 [7] | IC50 (MCF-10A [8]) | IC50 [9] | selectivity ratio [10] | Activity [11] | Activity [12] | Activity [13] | Activity [14] | Activity [15] | Activity [16] | other results |
| --- | --- | --- | --- | --- | --- | --- | --- | --- | --- | --- | --- | --- | --- | --- | --- | --- | --- | --- | --- | --- | --- |
| 4.7 µM | 7.7 µM | 4.2 µM | C#CCNC(=O)[C@H](CC)[C@H]1CC[C@H](C)[C@H]([C@@H](C)[C@H](O)[C@H](C)C(=O)[C@H](CC)[C@H]2O[C@]3(C=C[C@@H](OC(=O)NCC)[C@]4(CC[C@@](C)([C@H]5CC[C@](O)(CC)[C@H](C)O5)O4)O3)[C@H](C)C[C@@H]2C)O1 | 14 | 3.7 µM | 17 | 20 | 11 | 22 | 5.9 µM | 0.9 | 82 µM | 3.8 µM | 22 | 6.44% | 6.08% | 1.55% | 2.73% | 70.8% | 4.1% | Activity [17]: 26.1%; Activity [18]: 25.2%; Activity [19]: 12.2%; Activity [20]: 1.8%; Activity [21]: 77.8%; Activity [22]: 65.9% |
| 4.4 µM | 17 µM | 3.9 µM | CC[C@@H](C(=O)[C@@H](C)[C@@H](O)[C@H](C)[C@@H]1O[C@@H]([C@@H](CC)C(=O)OCC(F)(F)F)CC[C@@H]1C)[C@H]1O[C@]2(C=C[C@@H](O)[C@]3(CC[C@@](C)([C@H]4CC[C@](O)(CC)[C@H](C)O4)O3)O2)[C@H](C)C[C@@H]1C | 9.3 | 1.2 µM | 9.8 | 11 | 2.5 | 11 | 4.6 µM | 1 | 43 µM | 3.9 µM | 36 | – | – | – | – | – | – | – |
| 4.3 µM | 8.5 µM | 3.9 µM | C#CCOC(=O)[C@H](CC)[C@H]1CC[C@H](C)[C@H]([C@@H](C)[C@H](O)[C@H](C)C(=O)[C@H](CC)[C@H]2O[C@]3(C=C[C@@H](O)[C@]4(CC[C@@](C)([C@H]5CC[C@](O)(CC)[C@H](C)O5)O4)O3)[C@H](C)C[C@@H]2C)O1 | 8.7 | 3.3 µM | 13 | 14 | 6.4 | 21 | 6.2 µM | 0.67 | 54 µM | 2.6 µM | 16 | 5.35% | 8.24% | 4.64% | 2.95% | 49.8% | 4.34% | Activity [17]: 39.8%; Activity [18]: 42.8%; Activity [19]: 16.2%; Activity [20]: 3.58%; Activity [21]: 71.3%; Activity [22]: 51.7% |
| 3.8 µM | 4.3 µM | 3.5 µM | CCNC(=O)O[C@@H]1C=C[C@]2(O[C@H]([C@@H](CC)C(=O)[C@@H](C)[C@@H](O)[C@H](C)[C@@H]3O[C@@H]([C@@H](CC)C(=O)NCCc4ccc(F)cc4)CC[C@@H]3C)[C@@H](C)C[C@H]2C)O[C@@]12CC[C@@](C)([C@H]1CC[C@](O)(CC)[C@H](C)O1)O2 | 13 | 2.9 µM | 15 | 17 | 13 | 18 | 4.4 µM | 0.94 | 58 µM | 3.3 µM | 20 | 5.34% | 6.14% | 1.82% | 2.28% | 53.7% | 3.8% | Activity [17]: 21.8%; Activity [18]: 42.5%; Activity [19]: 9.23%; Activity [20]: 1.5%; Activity [21]: 80.9%; Activity [22]: 71.6% |
